Source: patent publication US20150010545A1 (KADMON CORPORATION, LLC, priority 2011, published 2015)
pIC50: −log10 of the molar value.

What was measured:
Src [1] = target: T1, Src (Homo sapiens, UniProt P12931); conditions: both cell lines (JIMT-1, HCC1954), 18 hours of treatment
KDR = target: T2, KDR (Mus musculus, UniProt P35918); assay: VEGF-induced KDR phosphorylation in mouse lungs; assay type: in vivo, mice; conditions: mouse lung lysate pools; read-out: IC50 of decrease of VEGF-induced KDR receptor phosphorylation (plasma concentration)
T2 construct: from tissue; host or cells: mouse lung

EphB4 = target: T3, EphB4 (Homo sapiens, UniProt P54760); assay: EphB4 phosphorylation in HCT116/EphB4 xenografts in mice; assay type: in vivo
T3 construct: expressed in transfected cells; host or cells: HCT116 (human colon carcinoma), grown as xenografts in mice
T3 sequence (P54760 16-987): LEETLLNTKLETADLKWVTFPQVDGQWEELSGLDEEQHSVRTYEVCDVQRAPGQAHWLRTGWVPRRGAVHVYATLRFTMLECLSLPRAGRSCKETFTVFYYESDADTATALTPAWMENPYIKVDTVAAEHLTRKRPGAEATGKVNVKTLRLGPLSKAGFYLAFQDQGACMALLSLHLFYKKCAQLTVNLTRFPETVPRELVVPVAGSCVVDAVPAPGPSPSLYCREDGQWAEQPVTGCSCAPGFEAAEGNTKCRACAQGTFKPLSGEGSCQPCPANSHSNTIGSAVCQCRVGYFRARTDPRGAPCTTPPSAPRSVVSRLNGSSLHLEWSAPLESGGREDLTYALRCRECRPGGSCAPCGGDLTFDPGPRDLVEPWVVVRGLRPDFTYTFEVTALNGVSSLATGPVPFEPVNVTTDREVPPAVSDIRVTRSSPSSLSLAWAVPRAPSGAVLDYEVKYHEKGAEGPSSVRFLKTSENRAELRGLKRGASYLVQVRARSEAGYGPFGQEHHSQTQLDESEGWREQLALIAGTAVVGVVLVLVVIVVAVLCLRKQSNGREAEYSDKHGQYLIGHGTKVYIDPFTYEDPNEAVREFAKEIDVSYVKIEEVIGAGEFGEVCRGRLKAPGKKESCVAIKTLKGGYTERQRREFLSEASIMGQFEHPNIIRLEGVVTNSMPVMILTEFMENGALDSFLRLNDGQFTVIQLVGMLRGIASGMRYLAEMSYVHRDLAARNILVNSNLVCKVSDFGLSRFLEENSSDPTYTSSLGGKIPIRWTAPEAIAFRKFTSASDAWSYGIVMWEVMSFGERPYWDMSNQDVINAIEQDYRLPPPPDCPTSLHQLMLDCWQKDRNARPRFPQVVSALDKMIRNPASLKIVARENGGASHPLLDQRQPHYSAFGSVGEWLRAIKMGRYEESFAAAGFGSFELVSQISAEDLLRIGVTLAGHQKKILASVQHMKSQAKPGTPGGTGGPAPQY
Excerpt: The ability of EXEL-7647 to inhibit the activity of the EphB4 receptor (determined by measuring the receptor's level of phosphorylation) was validated as follows. A cell line expressing high levels of EphB4 was derived by transfecting the human colon carcinoma line HCT116 with a drug selectable marker and an expression vector encoding EphB4. The resulting EphB4 expressing cells (HCT116/EphB4) grow as xenografts in immunocompromised mice. […] Attempts to further stimulate EphB4-phosphorylation by intravenous or intratumoral injection of […] were not successful (data not shown).
Mice bearing HCT116/EphB4 xenografts were dosed orally on three consecutive days with 3, 10, 30 or 100 mg/kg EXEL-7647. Tumors were harvested 1 hr after the final dose and assayed individually or in treatment groups for total and phospho-EphB4 levels by standard Western blotting (FIG. 5, left panel). Tumors from mice treated with vehicle alone served as the negative control. The detection of actin served as a control for protein integrity and concentration.
The plasma concentrations of EXEL-7647 in the mice carrying the analyzed tumors (see above) were determined as well and correlated with the corresponding reductions of phospho-EPHB4 levels (FIG. 5, right panel).

[2] = test system: human microvascular endothelial cells (HMVECs); assay: VEGF-induced endothelial tubule formation assay; assay type: cell-based; conditions: HMVEC; HMVECs on human diploid fibroblasts, CD31 staining; read-out: IC50 of inhibition of VEGF-induced tubule formation
Excerpt: When plated on a confluent layer of normal human diploid fibroblasts, human microvascular endothelial cells (HMVECs) form extensive networks of tubules in response to VEGF over a 7-10 day period.

[3] = test system: MDA-MB-231 tumor xenografts; assay: MDA-MB-231 xenografts, 14-day dosing: tumor growth, necrosis, CD31, Ki67; assay type: in vivo, human; conditions: fourteen days; for CD31 Analysis MVC (mean vessel count) / Ki67 Expression % of Cells / Necrosis % increase: mean (SD)
Protocol: Anti-angiogenic effects of EXEL-7647 were also studied in vivo. Tumor xenografts derived from the human breast cancer cell line MDA-MB-231 were established in athymic female mice and allowed to reach a total weight of 100 mg. The mice were then treated orally on fourteen consecutive days with doses of 10, 30 or 100 mg/kg of EXEL-7647. The tumors were harvested and their weights were measured after the last dosage had been administered. Tumors derived from mice treated with vehicle alone served as negative controls. […] A statistically significant increase in tumor necrosis was not observed at the lower dose of 10 mg/kg in this model.

ErbB2 (Her2) = ErbB2 (Her2) (Homo sapiens, UniProt P04626); assay: ErbB2 phosphorylation in BT474 tumor xenografts in mice; assay type: in vivo
[4] = test system: MDA-MB-231 tumor xenografts; assay: MDA-MB-231 xenograft growth, up to 28-day dosing; assay type: in vivo, human
Protocol: The ability of EXEL-7647 to inhibit the growth of tumors derived from the human breast cancer cell line MDA-MB-231 was validated as follows. Tumor xenografts derived from MDA-MB-231 cells were established in athymic female mice and allowed to reach a total weight of 100 mg. The mice were then treated orally on up to twenty-eight consecutive days with doses of 10, 30 or 100 mg/kg of EXEL-7647. The tumors were harvested on specific days after treatment with XL647 had begun and their weights were measured, as indicated in FIG. 7. Tumors derived from mice treated with vehicle alone served as negative controls.

[5] = test system: murine MS1 endothelial cells; assay: scratch assay, VEGF-stimulated endothelial cell migration
HMVECs = conditions: human
EGFR = EGFR (Homo sapiens, UniProt P00533); assay: EGF-induced EGFR phosphorylation in A431 tumor xenografts in mice; assay type: in vivo
BT474 tumor xenografts = assay: BT474 tumor xenograft growth in athymic nude mice; assay type: in vivo, human; conditions: oral, three consecutive days
Protocol: The human breast cancer cell line BT474 expresses high levels of ErbB2 (Her2), a significant fraction of which is constitutively phosphorylated even in the absence of an exogenous ligand. The phosphorylation of ErbB2 is a measure of its activity. Athymic nude mice bearing tumor xenografts derived from the human breast cancer cell line BT474 were treated orally on three consecutive days with 3, 10, 30 or 100 mg/kg of EXEL-7647. The tumors were harvested 1 hr after the final dose was administered and their weights were measured.

[6] = test system: FAK (focal adhesion kinase); assay: FAK (PY861) phosphorylation in DLD1-PTK2 cells, Western blot; assay type: cell-based; conditions: one hour, serum-free DMEM, read-out: IC50 of inhibition of FAK phosphorylation at tyrosine 861
Protocol: (§1) Inhibition of SRC kinase activity by EXEL-7647 was measured using in vitro kinase assays. […] In addition, the effect of EXEL-7647 on the phosphorylation of the […] protein FAK (focal adhesion kinase) was measured in cell culture (FIG. 1). Specifically, DLD1-PTK2 cells were treated with EXEL-7647 at concentrations of 1.6, 4.7, 14, 41, 123, 370, 1111, 3333 or 10,000 nM for one hour in serum-free DMEM and harvested. The phosphorylation status of the tyrosine at amino acid position 861 of the FAK protein (“FAK-PY861”) in the treated cells was then determined by standard Western blotting using phosphorylation-specific antibodies, as indicated in FIG. 1. The Western blot was quantified using a Typhoon scanned image and ImageQuant software and the IC50 value for EXEL-7647-mediated inhibition of FAK-phosphorylation calculated. […] The kinase inhibitor staurosporine (EXEL 00878128) was used as a positive control. […] The identifier EXEL-02377647:9 in FIG. 1 refers to compound EXEL-7647.

HCC1954 cells = assay: HCC1954 cell proliferation assay (CellTiter 96 AQueous); assay type: cell-based; conditions: Homo sapiens, 72 hours
[7] = cytotoxicity on HMVECs, Alamar blue staining; conditions: human, human microvascular endothelial cells (HMVECs)
JIMT-1 cells = assay: JIMT-1 cell proliferation assay (CellTiter 96 AQueous); assay type: cell-based; conditions: Homo sapiens, 72 hours
Src [8] = target: T1, Src; assay: in vitro SRC kinase assay; assay type: biochemical; conditions: in vitro kinase assays; read-out: IC50 of inhibition of SRC kinase activity
Protocol: as §1

Sequence of ErbB2 (Her2) (P04626 23-1255): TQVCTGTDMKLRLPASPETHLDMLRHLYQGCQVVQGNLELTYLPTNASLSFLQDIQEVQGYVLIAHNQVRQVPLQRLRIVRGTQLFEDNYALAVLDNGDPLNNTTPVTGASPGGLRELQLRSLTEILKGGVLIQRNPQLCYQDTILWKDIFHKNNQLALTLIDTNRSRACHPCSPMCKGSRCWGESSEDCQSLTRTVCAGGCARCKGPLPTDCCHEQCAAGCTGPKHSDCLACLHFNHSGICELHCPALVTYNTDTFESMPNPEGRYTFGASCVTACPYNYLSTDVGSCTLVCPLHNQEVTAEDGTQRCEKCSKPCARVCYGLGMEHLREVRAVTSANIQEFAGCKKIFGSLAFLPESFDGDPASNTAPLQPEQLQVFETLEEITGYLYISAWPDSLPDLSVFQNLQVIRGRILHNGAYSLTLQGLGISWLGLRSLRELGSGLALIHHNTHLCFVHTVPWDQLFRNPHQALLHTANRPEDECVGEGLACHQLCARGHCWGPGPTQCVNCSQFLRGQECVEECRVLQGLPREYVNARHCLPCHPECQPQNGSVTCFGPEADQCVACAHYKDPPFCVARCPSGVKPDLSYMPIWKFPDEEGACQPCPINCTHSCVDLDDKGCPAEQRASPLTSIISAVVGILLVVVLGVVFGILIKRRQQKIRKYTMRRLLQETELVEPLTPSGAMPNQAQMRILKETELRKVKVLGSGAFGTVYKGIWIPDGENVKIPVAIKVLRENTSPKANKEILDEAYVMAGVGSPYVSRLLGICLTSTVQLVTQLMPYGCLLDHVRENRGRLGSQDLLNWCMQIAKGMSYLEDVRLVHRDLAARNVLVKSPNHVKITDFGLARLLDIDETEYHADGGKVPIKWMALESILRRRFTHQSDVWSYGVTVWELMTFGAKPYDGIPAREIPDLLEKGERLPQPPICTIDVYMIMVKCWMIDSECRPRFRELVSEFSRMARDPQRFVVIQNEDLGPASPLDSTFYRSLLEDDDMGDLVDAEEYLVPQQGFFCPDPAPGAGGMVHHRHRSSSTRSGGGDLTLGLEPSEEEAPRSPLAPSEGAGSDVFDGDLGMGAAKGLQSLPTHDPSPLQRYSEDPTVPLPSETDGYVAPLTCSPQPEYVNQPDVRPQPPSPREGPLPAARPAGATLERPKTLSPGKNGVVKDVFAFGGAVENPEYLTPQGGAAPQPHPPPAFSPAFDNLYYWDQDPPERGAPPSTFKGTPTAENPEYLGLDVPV
Sequence of EGFR (P00533 25-1210): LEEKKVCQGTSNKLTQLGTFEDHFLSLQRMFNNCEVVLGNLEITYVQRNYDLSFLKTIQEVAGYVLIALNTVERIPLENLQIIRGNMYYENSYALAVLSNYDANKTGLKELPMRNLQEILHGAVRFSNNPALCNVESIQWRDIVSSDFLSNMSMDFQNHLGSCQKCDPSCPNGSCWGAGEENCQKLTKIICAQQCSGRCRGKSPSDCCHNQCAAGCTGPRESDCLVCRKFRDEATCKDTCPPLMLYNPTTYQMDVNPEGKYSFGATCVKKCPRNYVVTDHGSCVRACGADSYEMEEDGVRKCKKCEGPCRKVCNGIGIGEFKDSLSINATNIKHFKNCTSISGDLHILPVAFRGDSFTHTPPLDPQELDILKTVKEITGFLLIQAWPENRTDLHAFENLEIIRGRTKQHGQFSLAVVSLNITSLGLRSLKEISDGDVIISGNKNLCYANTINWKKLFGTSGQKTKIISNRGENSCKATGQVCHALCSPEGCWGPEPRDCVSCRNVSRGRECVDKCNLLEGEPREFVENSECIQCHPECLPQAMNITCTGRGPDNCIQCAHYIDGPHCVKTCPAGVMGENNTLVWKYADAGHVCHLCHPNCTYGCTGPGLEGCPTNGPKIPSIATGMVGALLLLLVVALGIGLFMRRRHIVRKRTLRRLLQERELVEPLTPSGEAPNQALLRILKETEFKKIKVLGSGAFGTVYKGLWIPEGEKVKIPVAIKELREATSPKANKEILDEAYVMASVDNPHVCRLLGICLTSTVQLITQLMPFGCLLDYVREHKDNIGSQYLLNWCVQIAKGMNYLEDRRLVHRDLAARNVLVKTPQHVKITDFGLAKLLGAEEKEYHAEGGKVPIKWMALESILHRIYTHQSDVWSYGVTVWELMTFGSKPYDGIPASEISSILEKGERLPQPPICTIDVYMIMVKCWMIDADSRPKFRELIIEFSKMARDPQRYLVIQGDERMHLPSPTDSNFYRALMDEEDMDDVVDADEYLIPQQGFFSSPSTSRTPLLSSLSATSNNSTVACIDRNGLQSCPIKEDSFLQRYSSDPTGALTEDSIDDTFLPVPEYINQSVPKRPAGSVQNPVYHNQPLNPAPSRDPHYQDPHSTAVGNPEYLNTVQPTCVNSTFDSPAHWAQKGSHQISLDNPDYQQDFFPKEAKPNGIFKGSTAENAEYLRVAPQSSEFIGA
T1 sequence (P12931 whole entry): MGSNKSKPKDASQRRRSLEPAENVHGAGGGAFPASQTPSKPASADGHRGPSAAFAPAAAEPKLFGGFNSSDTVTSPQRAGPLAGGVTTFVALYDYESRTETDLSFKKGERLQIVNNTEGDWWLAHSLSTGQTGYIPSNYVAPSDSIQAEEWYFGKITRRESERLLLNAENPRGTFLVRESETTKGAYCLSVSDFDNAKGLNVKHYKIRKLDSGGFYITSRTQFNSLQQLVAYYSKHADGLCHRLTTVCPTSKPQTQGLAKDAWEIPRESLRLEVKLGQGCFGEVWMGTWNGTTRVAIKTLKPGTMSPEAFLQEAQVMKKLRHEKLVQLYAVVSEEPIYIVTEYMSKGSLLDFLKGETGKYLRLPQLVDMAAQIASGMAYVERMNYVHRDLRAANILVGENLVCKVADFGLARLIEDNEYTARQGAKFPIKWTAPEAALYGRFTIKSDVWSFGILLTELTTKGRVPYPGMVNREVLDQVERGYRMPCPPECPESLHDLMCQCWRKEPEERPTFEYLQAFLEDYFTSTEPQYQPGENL
T2 sequence (P35918 20-1345): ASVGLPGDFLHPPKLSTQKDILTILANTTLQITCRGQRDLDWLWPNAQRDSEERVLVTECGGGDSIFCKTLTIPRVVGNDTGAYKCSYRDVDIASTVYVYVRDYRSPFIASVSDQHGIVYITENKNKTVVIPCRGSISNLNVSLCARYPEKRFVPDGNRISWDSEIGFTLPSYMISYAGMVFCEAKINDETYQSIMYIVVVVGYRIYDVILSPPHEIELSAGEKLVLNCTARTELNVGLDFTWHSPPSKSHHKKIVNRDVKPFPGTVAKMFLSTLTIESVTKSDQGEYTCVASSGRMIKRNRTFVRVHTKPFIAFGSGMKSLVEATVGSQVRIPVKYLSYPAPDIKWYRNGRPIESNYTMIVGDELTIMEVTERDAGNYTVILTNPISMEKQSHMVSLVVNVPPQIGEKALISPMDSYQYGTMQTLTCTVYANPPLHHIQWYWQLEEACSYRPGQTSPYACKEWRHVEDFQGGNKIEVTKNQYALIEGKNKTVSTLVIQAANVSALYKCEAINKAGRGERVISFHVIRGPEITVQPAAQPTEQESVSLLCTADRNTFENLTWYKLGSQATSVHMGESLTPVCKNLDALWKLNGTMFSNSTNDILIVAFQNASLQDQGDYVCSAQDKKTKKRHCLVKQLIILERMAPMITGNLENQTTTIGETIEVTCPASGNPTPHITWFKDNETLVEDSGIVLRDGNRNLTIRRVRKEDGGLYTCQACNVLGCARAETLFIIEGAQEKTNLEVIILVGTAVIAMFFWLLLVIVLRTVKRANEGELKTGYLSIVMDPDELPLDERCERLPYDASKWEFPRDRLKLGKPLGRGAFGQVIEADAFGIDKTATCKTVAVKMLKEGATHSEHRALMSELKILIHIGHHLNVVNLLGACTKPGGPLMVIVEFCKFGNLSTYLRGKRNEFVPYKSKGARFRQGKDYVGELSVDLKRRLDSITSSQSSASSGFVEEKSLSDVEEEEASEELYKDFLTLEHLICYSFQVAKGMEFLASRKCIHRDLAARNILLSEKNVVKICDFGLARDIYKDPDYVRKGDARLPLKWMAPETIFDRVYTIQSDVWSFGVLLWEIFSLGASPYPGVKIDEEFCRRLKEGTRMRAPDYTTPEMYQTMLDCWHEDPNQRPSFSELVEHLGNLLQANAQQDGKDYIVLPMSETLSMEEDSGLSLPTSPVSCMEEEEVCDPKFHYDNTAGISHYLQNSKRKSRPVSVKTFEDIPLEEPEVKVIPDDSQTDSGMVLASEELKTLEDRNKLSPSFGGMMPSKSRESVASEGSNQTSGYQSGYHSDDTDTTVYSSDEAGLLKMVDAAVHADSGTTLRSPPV

Structure (SMILES): CS(=O)(=O)CCNCc1ccc(-c2ccc3ncnc(Nc4ccc(OCc5cccc(F)c5)c(Cl)c4)c3c2)o1 [lapatinib]
- able to inhibit SRC activity (SRC phosphorylation) (Src [1]): not

Structure (SMILES): COc1cc2c(Nc3ccc(Cl)c(Cl)c3F)ncnc2cc1OCC1C[C@@H]2CN(C)C[C@@H]2C1 (stereo partly drawn) [EXEL-7647, N-(3,4-dichloro-2-fluorophenyl)-7-({[(3aR,6aS)-2-methyloctahydrocyclopenta[c]pyrrol-5-yl]methyl}oxy)-6-(methyloxy)quinazolin-4-amine]
- pIC50 (KDR): ~5.91
- reduction of phospho-EphB4 (EphB4; 100 mg/kg oral on three consecutive days): approximately 70%
- pIC50 (EphB4; HCT116/EphB4 xenografts, read-out: plasma concentration predicted for 50% inhibition of EphB4-phosphorylation): ~5.62
- reduction of EphB4 phosphorylation in tumors (EphB4; plasma concentration of about 3 μM): approximately 70%
- pIC50 [2]: ~6.66
- CD31 Analysis % Reduction ([3]; 10 mg/kg oral): 30.23%
- Ki67 Expression % Reduction ([3]; 10 mg/kg oral): 39.6%
- Necrosis fold increase ([3]; 10 mg/kg oral): 1.6 fold
- CD31 Analysis MVC (mean vessel count) ([3]; 10 mg/kg oral): 12.93 (2.3)
- Ki67 Expression % of Cells ([3]; 10 mg/kg oral): 29.8 (13.3) %
- Necrosis % increase ([3]; 10 mg/kg oral): 25.0 (14.2) %
- CD31 Analysis % Reduction ([3]; 30 mg/kg oral): 55.83%
- Ki67 Expression % Reduction ([3]; 30 mg/kg oral): 42.6%
- Necrosis fold increase ([3]; 30 mg/kg oral): 2.0 fold
- CD31 Analysis MVC (mean vessel count) ([3]; 30 mg/kg oral): 8.18 (1.4)
- Ki67 Expression % of Cells ([3]; 30 mg/kg oral): 28.3 (10.4) %
- Necrosis % increase ([3]; 30 mg/kg oral): 30.6 (11.3) %
- CD31 Analysis % Reduction ([3]; 100 mg/kg oral): 91.23%
- Ki67 Expression % Reduction ([3]; 100 mg/kg oral): 49.6%
- Necrosis fold increase ([3]; 100 mg/kg oral): 4.5 fold
- CD31 Analysis MVC (mean vessel count) ([3]; 100 mg/kg oral): 1.625 (1)
- Ki67 Expression % of Cells ([3]; 100 mg/kg oral): 24.87 (4.9) %
- Necrosis % increase ([3]; 100 mg/kg oral): 71.1 (8.1) %
- tumor weight at end of study ([3]; 100 mg/kg oral, tumor weight at start 100.6±8.7 mg): 112 ± 16.2 mg
- reduction of phospho-ErbB2 (ErbB2 (Her2); 100 mg/kg oral on three consecutive days, vs vehicle): approximately 70%
- pIC50 (ErbB2 (Her2); BT474 xenografts, correlated with plasma concentration, read-out: IC50 of inhibition of phospho-ErbB2 accumulation in tumors (plasma concentration)): 5.45
- reduction of phospho-ErbB2 (ErbB2 (Her2); plasma concentration of about 5.37 μM): approximately 69%
- final tumor weight ([4]; 100 mg/kg oral, up to twenty-eight days, starting tumor weight 94±9 mg): 117 ± 33 mg
- calculated ED50 of inhibition of tumor growth ([4]; MDA-MB-231 xenografts, oral, up to twenty-eight consecutive days): 22.9 mg of XL647 per kg body weight
- cytotoxicity in scratch assay ([5]; concentrations below 1.1 μM): No evidence for cytotoxicity
- pIC50 ([5]; read-out: IC50 of inhibition of cellular migration into the scratch, VEGF-stimulated MS1 cells, 24 hrs, six-point dose response): ~6.92
- cytotoxicity IC50 relative to IC50 of tubule formation inhibition (HMVECs): approximately 5 fold
- reduction of EGF-induced EGFR-phosphorylation (EGFR; 100 mg/kg oral, vs positive control): about 90%
- pIC50 (EGFR; read-out: IC50 plasma concentration for inhibition of EGFR phosphorylation in tumors): 6.14
- calculated ED50 of inhibition of tumor growth (BT474 tumor xenografts): 30 mg EXEL-7647 per kg of body weight
- pIC50 [6]: ~6.00
- inhibition at 0.2 µM (HCC1954 cells; EXEL-7647 0.2 μM alone): 22.5%
- inhibition at 0.5 µM (HCC1954 cells; EXEL-7647 0.5 μM alone): 32.6%
- inhibition at 1 µM (HCC1954 cells; EXEL-7647 1.0 μM alone): 38.1%
- inhibition at 2 µM (HCC1954 cells; EXEL-7647 2.0 μM alone): 43.6%
- inhibition at 5 µM (HCC1954 cells; EXEL-7647 5.0 μM alone): 80.4%
- pIC50 [7]: ~5.89
- inhibition at 0.2 µM (JIMT-1 cells; EXEL-7647 0.2 μM alone): 15.7%
- inhibition at 0.5 µM (JIMT-1 cells; EXEL-7647 0.5 μM alone): 20.3%
- inhibition at 1 µM (JIMT-1 cells; EXEL-7647 1.0 μM alone): 22.7%
- inhibition at 2 µM (JIMT-1 cells; EXEL-7647 2.0 μM alone): 28.8%
- inhibition at 5 µM (JIMT-1 cells; EXEL-7647 5.0 μM alone): 81.7%
- pIC50 (Src [8]): 7.99
